Values after ≈ are worked out from the molar mass of the structure shown. Where two headings read alike, the source gives them in different places.
Legend:
Escherichia coli 311 [1] = assay: In vivo systemic lethal infection of mice, Escherichia coli 311; design: species or system Charles River CD-1 mice; conditions: CD-1 mice
Text: (§1) As shown in Table II these compounds show high in vivo antibacterial activity against Escherichia coli 311 and Klebsiella pneumoniae W-75-2 when administered by a single subcutaneous dose to groups of Charles River CD-1 mice, weighing about 20 g. each. The mice are infected intraperitoneally with a lethal dose of these bacteria.

[2] = test system: Klebsiella pneumoniae W-75-2; assay: In vivo systemic lethal infection of mice, Klebsiella pneumoniae W-75-2; design: species or system Charles River CD-1 mice; conditions: CD-1 mice
Text: as §1

[3] = test system: Pseudomonas aeruginosa G236; assay: In vitro MIC, agar dilution, Pseudomonas aeruginosa G236; type: cell-based; conditions: Pseudomonas aeruginosa G236; agar dilution, 35° C., 18 hours, nutrient agar; read-out: Minimal Inhibitory Concentration
Protocol: (§2) The in vitro activity of representative compounds of the present invention are given in the following Table I in terms of minimal inhibitory concentration. The test used was the standard agar dilution test using a Steers multiple inocula replicator and incubating at 35° C. for 18 hours in conventional nutrient agar.

[4] = test system: Pseudomonas aeruginosa PD05141; assay: In vitro MIC, agar dilution, Pseudomonas aeruginosa PD05141; type: cell-based; conditions: read-out: Minimal Inhibitory Concentration
Protocol: as §2

[5] = test system: Pseudomonas aeruginosa 12-4-4; assay: In vitro MIC, agar dilution, Pseudomonas aeruginosa 12-4-4; type: cell-based; conditions: 1244; Pseudomonas aeruginosa 12-4-4; agar dilution, 35° C., 18 hours, nutrient agar; read-out: Minimal Inhibitory Concentration
Protocol: as §2

[6] = test system: Pseudomonas aeruginosa UCS 76-13; assay: In vitro MIC, agar dilution, Pseudomonas aeruginosa UCS 76-13; type: cell-based; conditions: UCS7613; Pseudomonas aeruginosa UCS 76-13; agar dilution, 35° C., 18 hours, nutrient agar; read-out: Minimal Inhibitory Concentration
Protocol: as §2

[7] = test system: Klebsiella pneumoniae MA75-1; assay: In vitro MIC, agar dilution, Klebsiella pneumoniae MA75-1; type: cell-based; conditions: MA751; Klebsiella pneumoniae MA75-1; agar dilution, 35° C., 18 hours, nutrient agar; read-out: Minimal Inhibitory Concentration
Protocol: as §2

[8] = test system: Klebsiella pneumoniae W75-2; assay: In vitro MIC, agar dilution, Klebsiella pneumoniae W75-2; type: cell-based; conditions: W752; Klebsiella pneumoniae W75-2; agar dilution, 35° C., 18 hours, nutrient agar; read-out: Minimal Inhibitory Concentration
Protocol: as §2

[9] = test system: Klebsiella pneumoniae W75-4; assay: In vitro MIC, agar dilution, Klebsiella pneumoniae W75-4; type: cell-based; conditions: W754; Klebsiella pneumoniae W75-4; agar dilution, 35° C., 18 hours, nutrient agar; read-out: Minimal Inhibitory Concentration
Protocol: as §2

[10] = test system: Klebsiella pneumoniae UR76-1; assay: In vitro MIC, agar dilution, Klebsiella pneumoniae UR76-1; type: cell-based; conditions: UR761; Klebsiella pneumoniae UR76-1; agar dilution, 35° C., 18 hours, nutrient agar; read-out: Minimal Inhibitory Concentration
Protocol: as §2

Klebsiella pneumoniae AD = assay: In vitro MIC, agar dilution, Klebsiella pneumoniae AD; type: cell-based; conditions: Klebsiella pneumoniae AD; agar dilution, 35° C., 18 hours, nutrient agar; read-out: Minimal Inhibitory Concentration
Protocol: as §2

[11] = test system: Enterobacter aerogenes UR76-3; assay: In vitro MIC, agar dilution, Enterobacter aerogenes UR76-3; type: cell-based; conditions: Klebsiella aerogenes, UR763; Enterobacter aerogenes UR76-3; agar dilution, 35° C., 18 hours, nutrient agar; read-out: Minimal Inhibitory Concentration
Protocol: as §2

[12] = test system: Enterobacter cloacae MA75-1; assay: In vitro MIC, agar dilution, Enterobacter cloacae MA75-1; type: cell-based; conditions: read-out: Minimal Inhibitory Concentration
Protocol: as §2

[13] = test system: Enterobacter cloacae OSU75-2; assay: In vitro MIC, agar dilution, Enterobacter cloacae OSU75-2; type: cell-based; conditions: OSU752; Enterobacter cloacae OSU75-2; agar dilution, 35° C., 18 hours, nutrient agar; read-out: Minimal Inhibitory Concentration
Protocol: as §2

Serratia K101 = assay: In vitro MIC, agar dilution, Serratia K101; type: cell-based; conditions: Serratia K101; agar dilution, 35° C., 18 hours, nutrient agar; read-out: Minimal Inhibitory Concentration
Protocol: as §2

Serratia marcens K77-1 = assay: In vitro MIC, agar dilution, Serratia marcens K77-1; type: cell-based; conditions: K771; Serratia marcens K77-1; agar dilution, 35° C., 18 hours, nutrient agar; read-out: Minimal Inhibitory Concentration
Protocol: as §2

Serratia marcens QHC77-2 = assay: In vitro MIC, agar dilution, Serratia marcens QHC77-2; type: cell-based; conditions: QHC772; Serratia marcens QHC77-2; agar dilution, 35° C., 18 hours, nutrient agar; read-out: Minimal Inhibitory Concentration
Protocol: as §2

Proteus vulgaris N74-1 = assay: In vitro MIC, agar dilution, Proteus vulgaris N74-1; type: cell-based; conditions: N741, 35° C., 18 hours, nutrient agar, read-out: Minimal Inhibitory Concentration
Protocol: as §2

Proteus morganii K72 = assay: In vitro MIC, agar dilution, Proteus morganii K72; type: cell-based; conditions: Morganella morganii; Proteus morganii K72; agar dilution, 35° C., 18 hours, nutrient agar; read-out: Minimal Inhibitory Concentration
Protocol: as §2

Proteus rettgeri N76-1 = assay: In vitro MIC, agar dilution, Proteus rettgeri N76-1; type: cell-based; conditions: Providencia rettgeri, N761; Proteus rettgeri N76-1; agar dilution, 35° C., 18 hours, nutrient agar; read-out: Minimal Inhibitory Concentration
Protocol: as §2

[14] = test system: Escherichia coli ESS22-31; assay: In vitro MIC, agar dilution, Escherichia coli ESS22-31; type: cell-based; conditions: ESS2231; Escherichia coli ESS22-31; agar dilution, 35° C., 18 hours, nutrient agar; read-out: Minimal Inhibitory Concentration
Protocol: as §2

Escherichia coli W75-1 = assay: In vitro MIC, agar dilution, Escherichia coli W75-1; type: cell-based; conditions: W751, 35° C., 18 hours, nutrient agar, read-out: Minimal Inhibitory Concentration
Protocol: as §2

Escherichia coli OSU75-1 = assay: In vitro MIC, agar dilution, Escherichia coli OSU75-1; type: cell-based; conditions: OSU751, 35° C., 18 hours, nutrient agar, read-out: Minimal Inhibitory Concentration
Protocol: as §2

Escherichia coli 311 [15] = assay: In vitro MIC, agar dilution, Escherichia coli 311; type: cell-based; conditions: 35° C., 18 hours, nutrient agar, read-out: Minimal Inhibitory Concentration
Protocol: as §2

[16] = test system: Staphylococcus aureus Q74-1; assay: In vitro MIC, agar dilution, Staphylococcus aureus Q74-1; type: cell-based; conditions: Q741; Staphylococcus aureus Q74-1; agar dilution, 35° C., 18 hours, nutrient agar; read-out: Minimal Inhibitory Concentration
Protocol: as §2

[17] = test system: Staphylococcus aureus Q74-6; assay: In vitro MIC, agar dilution, Staphylococcus aureus Q74-6; type: cell-based; conditions: Q746; Staphylococcus aureus Q74-6; agar dilution, 35° C., 18 hours, nutrient agar; read-out: Minimal Inhibitory Concentration
Protocol: as §2

Enterococcus SM77-15 = assay: In vitro MIC, agar dilution, Enterococcus SM77-15; type: cell-based; conditions: SM7715; Enterococcus SM77-15; agar dilution, 35° C., 18 hours, nutrient agar; read-out: Minimal Inhibitory Concentration
Protocol: as §2

[18] = single subcutaneous dose 4 mg./kg.
[19] = single subcutaneous dose 8 mg./kg.
[20] = single subcutaneous dose 0.5 mg./kg.
[21] = single subcutaneous dose 1 mg./kg.
[22] = single subcutaneous dose 2 mg./kg.
[23] = single subcutaneous dose 0.12 mg./kg.
[24] = single subcutaneous dose 0.25 mg./kg.

Compound | Alive/Total Mice Tested, 7 Days After Infection (Escherichia coli 311 [1]; [18]) | Alive/Total Mice Tested, 7 Days After Infection [2, 20] | MIC [3] [µg/mL] | MIC [5] [µg/mL] | MIC [6] [µg/mL] | MIC [7] [µg/mL] | MIC [8] [µg/mL] | MIC [9] [µg/mL] | MIC [10] [µg/mL] | MIC (Klebsiella pneumoniae AD) [µg/mL] | MIC [11] [µg/mL] | MIC [13] [µg/mL] | MIC (Serratia K101) [µg/mL] | MIC (Serratia marcens K77-1) [µg/mL] | MIC (Serratia marcens QHC77-2) [µg/mL] | MIC (Proteus vulgaris N74-1) [µg/mL] | MIC (Proteus morganii K72) [µg/mL] | MIC (Proteus rettgeri N76-1) [µg/mL] | MIC [14] [µg/mL] | MIC (Escherichia coli W75-1) [µg/mL] | further results
Cn1nnnc1SCC1=C(C(=O)O)N2C(=O)[C@@H](NC(=O)[C@H](O)c3ccccc3)[C@H]2SC1 [Cefamandol] | 6/20 | 0/20 |  |  |  |  |  |  |  |  |  |  |  |  |  |  |  |  |  |  | Alive/Total Mice Tested, 7 Days After Infection (Escherichia coli 311 [1]; [19]): 11/20; Alive/Total Mice Tested, 7 Days After Infection (Escherichia coli 311 [1]; single subcutaneous dose 16 mg./kg.): 20/20; Alive/Total Mice Tested, 7 Days After Infection (Escherichia coli 311 [1]; single subcutaneous dose 32 mg./kg.): 20/20; Alive/Total Mice Tested, 7 Days After Infection [2, 21]: 1/20; Alive/Total Mice Tested, 7 Days After Infection [2, 22]: 7/20; Alive/Total Mice Tested, 7 Days After Infection [2, 18]: 19/20; Alive/Total Mice Tested, 7 Days After Infection [2, 19]: 20/20
CO/N=C(\C(=O)NC1C(=O)N2C(C(=O)O)=C(CSc3nnc(-n4cccn4)n3N)CSC12)c1csc(N)n1 (stereo not drawn) [Compound I, 7-[2-(Syn-methoxyimino)-2-(2-aminothiazol-4-yl)acetamido]-3-[4-amino-5-(1-pyrazolyl)-1,2,4-triazol-3-ylthiomethyl]-3-cephem-4-carboxylic acid] |  | 19/20 | 64 (≈ 111 µM) | 64 (≈ 111 µM) | 128 (≈ 222 µM) | ≤ 0.12 | ≤ 0.12 | ≤ 0.12 | 0.5 (≈ 0.866 µM) | ≤ 0.12 | ≤ 0.12 | 0.5 (≈ 0.866 µM) | 0.5 (≈ 0.866 µM) | 0.5 (≈ 0.866 µM) | 1 (≈ 1.73 µM) | ≤ 0.12 | ≤ 0.12 | ≤ 0.12 | ≤ 0.12 | ≤ 0.12 | MIC ([4]; Pseudomonas aeruginosa, PD05141, 18 h): 128 µg/mL (≈ 222 µM); MIC ([12]; MA751, Enterobacter cloacae MA75-1, agar dilution, 35° C., 18 hours, nutrient agar): 128 µg/mL (≈ 222 µM); MIC (Escherichia coli OSU75-1): ≤ 0.12 µg/mL; MIC (Escherichia coli 311 [15]): ≤ 0.12 µg/mL; MIC [16]: 2 µg/mL (≈ 3.46 µM); MIC [17]: 64 µg/mL (≈ 111 µM); MIC (Enterococcus SM77-15): > 128 µg/mL; Alive/Total Mice Tested, 7 Days After Infection (Escherichia coli 311 [1]; [23]): 1/20; Alive/Total Mice Tested, 7 Days After Infection (Escherichia coli 311 [1]; [24]): 6/20; Alive/Total Mice Tested, 7 Days After Infection (Escherichia coli 311 [1]; [20]): 15/20; Alive/Total Mice Tested, 7 Days After Infection (Escherichia coli 311 [1]; [21]): 19/20; Alive/Total Mice Tested, 7 Days After Infection ([2]; single subcutaneous dose 0.06 mg./kg.): 1/20; Alive/Total Mice Tested, 7 Days After Infection [2, 23]: 2/20; Alive/Total Mice Tested, 7 Days After Infection [2, 24]: 14/20
CO/N=C(\C(=O)NC1C(=O)N2C(C(=O)O)=C(CSc3n[nH]c(-n4cccn4)n3)CSC12)c1csc(N)n1 (stereo not drawn) [Compound V, 7-[2-(Syn-methoxyimino)-2-(2-aminothiazol-4-yl)acetamido]-3-[5-(1-pyrazolyl)-1,2,4-triazol-3-ylthiomethyl]-3-cephem-4-carboxylic acid] | 5/5 |  | 16 (≈ 28.4 µM) | 16 (≈ 28.4 µM) | 64 (≈ 114 µM) | ≤ 0.12 | ≤ 0.12 | ≤ 0.12 | 0.25 (≈ 0.444 µM) | ≤ 0.12 | ≤ 0.12 | 4 (≈ 7.11 µM) | 0.5 (≈ 0.889 µM) | 0.5 (≈ 0.889 µM) | 0.25 (≈ 0.444 µM) | 2 (≈ 3.55 µM) | ≤ 0.12 | ≤ 0.12 | ≤ 0.12 | ≤ 0.12 | MIC ([4]; Pseudomonas aeruginosa PD05141, agar dilution, 35° C., 18 hours, nutrient agar): 64 µg/mL (≈ 114 µM); MIC ([12]; Enterobacter cloacae, MA751, 18 h): > 128 µg/mL; MIC (Escherichia coli OSU75-1): ≤ 0.12 µg/mL; MIC (Escherichia coli 311 [15]): ≤ 0.12 µg/mL; MIC [16]: 1 µg/mL (≈ 1.78 µM); MIC [17]: 64 µg/mL (≈ 114 µM); MIC (Enterococcus SM77-15): > 128 µg/mL; Alive/Total Mice Tested, 7 Days After Infection (Escherichia coli 311 [1]; [24]): 0/5; Alive/Total Mice Tested, 7 Days After Infection (Escherichia coli 311 [1]; [20]): 0/5; Alive/Total Mice Tested, 7 Days After Infection (Escherichia coli 311 [1]; [21]): 5/5; Alive/Total Mice Tested, 7 Days After Infection (Escherichia coli 311 [1]; [22]): 5/5

From patent US4336375A, “Cephalosporanic acid derivatives” (American Cyanamid Company, priority 1980, dated 1982)
